Where a name gives a salt, the structure may show the parent alone. Read-outs that look alike come from different tables or passages of the source.
What was measured:
[1] = target: α1 adrenalin receptor; assay: Binding test on [3H] prazosin (α1 adrenalin receptor); set-up: species or system rat; details: [3H] prazosin about 0.2 nM, receptor fraction of rat cerebral cortex
[2] = target: T1, serotonin 1A receptor (Rattus norvegicus, UniProt P19327); assay: Binding test on [3H] 8-hydroxy-dipropylaminotetralin (serotonin 1A receptor); details: [3H] 8-OH-DPAT 0.5 nM, receptor fraction of rat hippocampus; read-out: 5HT1a
T1 construct: To the receptor fraction of the hippocampus were added a test compound and 0.5 nM of [^3H]; 8-hydroxy-dipropylaminotetralin; from tissue; host or cells: SD rat hippocampus, membrane (receptor) fraction
T1 sequence (P19327 1-422): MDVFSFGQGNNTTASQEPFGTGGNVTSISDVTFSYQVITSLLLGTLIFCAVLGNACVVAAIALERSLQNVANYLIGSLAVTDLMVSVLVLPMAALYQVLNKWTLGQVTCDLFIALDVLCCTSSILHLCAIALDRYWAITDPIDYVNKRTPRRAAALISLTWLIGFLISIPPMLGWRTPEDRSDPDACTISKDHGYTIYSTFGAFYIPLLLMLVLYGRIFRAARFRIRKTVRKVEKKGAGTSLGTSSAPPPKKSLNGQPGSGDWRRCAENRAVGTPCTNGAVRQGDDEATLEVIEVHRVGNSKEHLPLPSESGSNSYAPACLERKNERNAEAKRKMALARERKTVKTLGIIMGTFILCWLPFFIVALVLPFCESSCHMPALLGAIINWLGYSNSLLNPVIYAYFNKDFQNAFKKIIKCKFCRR

[3] = target: serotonin 2 receptor (Rattus norvegicus, UniProt P14842); assay: Binding test on [3H] ketanserin (serotonin 2 receptor)
[4] = [3H] ketanserin 0.3 nM, receptor fraction of rat cerebral cortex, read-out: 5HT2

Chain of serotonin 2 receptor (P14842 whole entry): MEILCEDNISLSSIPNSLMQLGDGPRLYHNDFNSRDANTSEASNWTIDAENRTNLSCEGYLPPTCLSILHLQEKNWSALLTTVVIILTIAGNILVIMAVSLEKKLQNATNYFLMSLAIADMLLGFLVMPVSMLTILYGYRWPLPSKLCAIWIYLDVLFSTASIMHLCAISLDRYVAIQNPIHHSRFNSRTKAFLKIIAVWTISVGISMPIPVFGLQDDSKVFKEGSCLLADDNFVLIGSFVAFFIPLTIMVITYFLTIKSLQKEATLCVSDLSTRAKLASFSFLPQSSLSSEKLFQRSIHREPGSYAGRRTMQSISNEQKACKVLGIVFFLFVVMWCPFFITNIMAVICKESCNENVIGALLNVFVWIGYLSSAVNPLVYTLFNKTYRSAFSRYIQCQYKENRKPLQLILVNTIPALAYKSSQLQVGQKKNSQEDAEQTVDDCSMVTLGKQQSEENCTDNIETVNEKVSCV

Structure (SMILES) | melting point | Ki [1] | Ki [2] | Ki [3, 4] | Ki [3]
CC(=O)N(C)Cc1ccc2ccn(C3CCN(CCc4ccc(F)cc4)CC3)c2c1 (as salt: oxalate) [Example 359, 1-[1-(4-fluorophenethyl)piperidin-4-yl]-6-N-methylacetamidomethylindole] | 148 to 149 °C |  |  |  | 
OCCOc1ccc2c(c1)CCCC2C1CCN(CCc2ccc(F)cc2)CC1 (stereo not drawn) (as salt: hydrochloride) [Example 278, 1-[2-(4-fluorophenyl)ethyl]-4-[6-(2-hydroxy)ethoxy-1,2,3,4-tetrahydronaphthalen-1-yl]piperidine] | 213 to 215 °C (dec.) |  |  |  | 
O=C(Cc1ccc2ccn(C3CCN(CCc4ccc(F)cc4)CC3)c2c1)N1CCCC1 (as salt: oxalate) [Example 298, 1-[1-(4-fluorophenethyl)piperidin-4-yl]-6-(tetramethylenecarbamoylmethyl)indole Oxalate] | 171.5 to 172.1 °C |  |  |  | 
CNCc1ccc2ccn(C3CCN(CCc4ccc(F)cc4)CC3)c2c1 (as salt: oxalate) [Example 361, 1-[1-(4-fluorophenethyl)piperidin-4-yl]-6-N-methylaminomethylindole] | 195 to 196 °C |  |  |  | 
COc1ccc2c(c1C)N(C1CCN(CCc3ccc(F)cc3)CC1)CCC2 (as salt: oxalate) | 176 to 178 °C |  |  |  | 
COc1ccc2c(c1OC)N(C1CCN(CCc3ccc(F)cc3)CC1)CCC2 (as salt: hydrochloride) | 213 to 215 °C |  |  |  | 
O=C(NCc1ccc2ccn(C3CCN(CCc4ccc(F)cc4)CC3)c2c1)n1ccnc1 (as salt: oxalate) [Example 368, 1-[1-(4-fluorophenethyl)piperidin-4-yl]-6-imidazocarbonylaminomethylindole] | 156 to 157 °C |  |  |  | 
CN(C)CC(=O)NCc1ccc2ccn(C3CCN(CCc4ccc(F)cc4)CC3)c2c1 (as salt: oxalate) [Example 375, 1-[1-(4-fluorophenethyl)piperidin-4-yl]-6-(N,N-dimethylaminoacetamido)methylindole] | 112 to 113 °C |  |  |  | 
COc1ccc2c(c1)N(C1CCN(CCc3cccs3)CC1)CCC2 (as salt: hydrochloride) [Example 270, 1-{1-[2-(2-Thienyl)ethyl]piperidin-4-yl}-7-methoxy-1,2,3,4-tetrahydroquinoline Hydrochloride] | 232 to 235 °C |  |  |  | 
CC(=O)NCc1ccc2ccn(C3CCN(CCc4ccc(F)cc4F)CC3)c2c1 (as salt: oxalate) [Example 357, 1-[1-(2,4-difluorophenethyl)piperidin-4-yl]-6-acetamidomethylindole] | 103 to 106 °C |  |  |  | 
O=C(CCN1CCCCC1)NCc1ccc2ccn(C3CCN(CCc4ccc(F)cc4)CC3)c2c1 (as salt: oxalate) [Example 379, 1-[1-(4-fluorophenethyl)piperidin-4-yl]-6-[3-(piperidin-1-yl)propionylamino]methylindole] | 108 to 109 °C |  |  |  | 
CN(C)CCC(=O)NCc1ccc2ccn(C3CCN(CCc4ccc(F)cc4)CC3)c2c1 (as salt: oxalate) [Example 378, 1-[1-(4-fluorophenethyl)piperidin-4-yl]-6-(3-N,N-dimethylaminopropionyl)aminomethylindole] | 104 to 105 °C |  |  |  | 
CCS(=O)(=O)Nc1ccc2ccn(C3CCN(CCc4ccc(F)cc4)CC3)c2c1 [Example 335, 1-[1-(4-fluorophenethyl)piperidin-4-yl]-6-(N-methylmethanesulfonylamino)indole] | 192 to 194 °C |  |  |  | 
COc1ccc2c(c1)N(C1CCN(CC(=O)c3ccc(F)cc3)CC1)CCC2 (as salt: hydrochloride) | 153 to 155 °C (dec.) |  |  |  | 
O=C(CCl)NCc1ccc(CCN2CCC(N3CCc4ccccc43)CC2)cc1 (as salt: oxalate) [Example 37, 1-[1-(4-chloroacetamidomethylphenethyl)piperidin-4-yl]indoline] | 138 °C |  |  |  | 
O=C(CN1CCCCC1)NCc1ccc2ccn(C3CCN(CCc4ccc(F)cc4)CC3)c2c1 (as salt: oxalate) [Example 376, 1-[1-(4-fluorophenethyl)piperidin-4-yl]-6-[(piperidin-1-yl)acetamido]methylindole] | 113 to 114 °C |  |  |  | 
CS(=O)(=O)NCc1ccc(CCN2CCC(N3CCc4ccccc43)CC2)cc1 (as salt: oxalate) [Example 38, 1-[1-(4-methanesulfonylaminomethylphenethyl)piperidin-4-yl]indoline] | 199 °C |  |  |  | 
COc1ccc2c(c1)N(C1CCN(CCc3ccc(F)cc3)CC1)C(C)(C)C2 (as salt: oxalate) [Example 396, 2,2-Dimethyl-1-[1-(4-fluorophenethyl)piperidin-4-yl]-6-methoxyindoline] | 228 °C (dec.) |  |  |  | 

Structure (SMILES) | melting point | Ki [1] | Ki [2] | Ki [3, 4] | Ki [3]
COc1ccc2c(c1)N(C1CCN(CCCC#N)CC1)CCC2 (as salt: hydrochloride) [Example 269, 1-[1-(4-Cyanopropyl)piperidin-4-yl]-7-methoxy-1,2,3,4-tetrahydroquinoline Hydrochloride] | 180 to 183 °C (dec.) |  |  |  | 
NCc1ccc2ccn(C3CCN(CCc4ccccc4F)CC3)c2c1 [Example 348, 1-[1-(2-fluorophenethyl)piperidin-4-yl]-6-aminomethylindole] | 86 to 87 °C |  |  |  | 
OCCOc1ccc(CCN2CCC(N3CCc4ccccc43)CC2)cc1 [Example 26, 1-{1-[4-(2-hydroxyethoxy)phenethyl]piperidin-4-yl}indoline] |  | 0.0511 µM | 0.0029 µM | 0.0195 µM | 
O=C(Cc1ccc2ccn(C3CCN(CCc4ccc(F)cc4)CC3)c2c1)NCCN1CCOCC1 [Example 313, 1-[1-(4-fluorophenethyl)piperidin-4-yl]-6-[2-(morpholin-4-yl)ethyl]carbamoylmethylindole Oxalate] |  | 0.144 µM | 0.0131 µM | 0.00158 µM | 
O=C(CN1CCCCC1)NCc1ccc2ccn(C3CCN(CCc4ccc(F)cc4)CC3)c2c1 [Example 376, 1-[1-(4-fluorophenethyl)piperidin-4-yl]-6-[(piperidin-1-yl)acetamido]methylindole] |  | 0.0467 µM | 0.00091 µM | 0.0021 µM | 
CCN1CCN([C@@H]2c3ccccc3CC2N(C)Cc2ccc(F)cc2)CC1 (stereo partly drawn) (as salt: hydrochloride) [Example 254] | 196 to 198 °C |  |  |  | 
c1ccc2c(c1)CCN2C1CCN(CC2COc3ccccc3O2)CC1 (stereo not drawn) [Example 77, 1-{1-[(1,4-benzodioxan-2-yl)methyl]piperidin-4-yl}indoline] |  | 0.249 µM | 0.0445 µM | 0.0137 µM | 
CCC(O)c1ccc2ccn(C3CCN(CCc4ccc(F)cc4)CC3)c2c1 (stereo not drawn) [Example 319, 1-[1-(4-fluorophenethyl)piperidin-4-yl]-6-(1-hydroxyproyl)indole Oxalate] |  | 0.0425 µM | 0.00056 µM | 0.0245 µM | 
O=C(Cc1ccc2ccn(C3CCN(CCc4ccc(F)cc4)CC3)c2c1)N1CCCC1 [Example 298, 1-[1-(4-fluorophenethyl)piperidin-4-yl]-6-(tetramethylenecarbamoylmethyl)indole Oxalate] |  | 0.0279 µM | 0.00186 µM | 0.0213 µM | 
N#CCNC(=O)Cc1ccc2ccn(C3CCN(CCc4ccc(F)cc4)CC3)c2c1 [Example 308, 1-[1-(4-fluorophenethyl)piperidin-4-yl]-6-cyanomethylcarbamoylmethylindole Oxalate] |  | 0.0594 µM | 0.00073 µM | 0.00384 µM | 
COc1cccc(Cc2ccc3c(c2)N(C2CCN(CCc4ccc(F)cc4)CC2)CC3)n1 [Example 187, 1-[1-(4-fluorophenethyl)piperidin-4-yl]-6-[1-(2-methoxypyridin-6-yl)methyl]indoline] |  | > 0.2 µM | 0.065 µM | 0.00501 µM | 
CN(c1ccc2ccn(C3CCN(CCc4ccc(F)cc4)CC3)c2c1)S(C)(=O)=O [Example 335] |  | 0.0284 µM | 0.00022 µM |  | > 0.02 µM
NC(=O)CNC(=O)Cc1ccc2ccn(C3CCN(CCc4ccc(F)cc4)CC3)c2c1 [Example 306, 1-[1-(4-fluorophenethyl)piperidin-4-yl]-6-(carbamoylmethyl)carbamoylmethylindole Oxalate] |  | 0.147 µM | 0.00282 µM | 0.00387 µM | 
O=C(Cc1ccc2ccn(C3CCN(CCc4ccc(F)cc4)CC3)c2c1)NCCN1CCCC1 [Example 312, 1-[1-(4-fluorophenethyl)piperidin-4-yl]-6-[2-(pyrrolidin-1-yl)ethyl]carbamoylmethylindole Oxalate] |  | 0.0533 µM | 0.00827 µM | 0.00056 µM | 
COc1ccc(C(O)c2ccc3ccn(C4CCN(CCc5ccc(F)cc5)CC4)c3c2)cn1 (stereo not drawn) [Example 318, 1-[1-(4-fluorophenethyl)piperidin-4-yl]-6-[(2-methoxypyridin-5-yl)hydroxymethyl]indole Oxalate] |  | 0.0466 µM | 0.00149 µM | 0.0083 µM | 
O=Cc1ccc2ccn(C3CCN(CCc4ccccc4F)CC3)c2c1 [Example 390, 1-[1-(2-fluorophenethyl)piperidin-4-yl]-6-formylindole] |  | 0.0343 µM | 0.00099 µM | 0.0116 µM | 
Fc1ccc(CCN2CCC(N3CCc4ccccc43)CC2)cc1F [Example 11, 1-[1-(3,4-difluorophenethyl)piperidin-4-yl]indoline] |  | 0.147 µM | 0.0057 µM | 0.0279 µM | 

Source: patent publication US6579881B2 (Eisai Co., Ltd., priority 1997, dated 2003)
